Measurements taken from ChEMBL document CHEMBL1201862, “PubChem BioAssay data set” (2004).
Several values for one entry are separate records, joined by “and”; a condition that tells them apart may be missing. Equal values may be shown once.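 Five concentrations, 48 hours, 96-well plates. GI50 = concentration required for 50% inhibition of growth.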 Activity calls are given as the source filed them. Rule as the data show it: active = GI50 up to about 1.1 µM and inactive = higher.

How the values were obtained:
Test in all cases: inhibition of tumour cell growth, NCI panel, 48 h
SNB-19 = test system: SNB-19
MOLT-4 = test system: MOLT-4
786-0 = test system: 786-0
HL-60 = test system: HL-60
OVCAR-8 = test system: OVCAR-8
SNB-75 = test system: SNB-75
UACC-257 = test system: UACC-257
Hs-578T = test system: Hs-578T
HOP-62 = test system: HOP-62
NCI-H522 = test system: NCI-H522
MCF7 = test system: MCF7
UACC-62 = test system: UACC-62
SK-OV-3 = test system: SK-OV-3
HCT-15 = test system: HCT-15
OVCAR-3 = test system: OVCAR-3
HT-29 = test system: HT-29
SW-620 = test system: SW-620
MDA-MB-231 = test system: MDA-MB-231
NCI/ADR-RES = test system: NCI/ADR-RES
NCI-H226 = test system: NCI-H226
SF-295 = test system: SF-295
K562 = test system: K562
T47D = test system: T47D
NCI-H23 = test system: NCI-H23
SR = test system: SR
MDA-MB-435 = test system: MDA-MB-435
DU-145 = test system: DU-145
SF-268 = test system: SF-268
COLO 205 = test system: COLO 205
EKVX = test system: EKVX
Malme-3M = test system: Malme-3M
OVCAR-4 = test system: OVCAR-4
OVCAR-5 = test system: OVCAR-5
A498 = test system: A498
CAKI-1 = test system: CAKI-1
UO-31 = test system: UO-31
ACHN = test system: ACHN
TK-10 = test system: TK-10
RXF 393 = test system: RXF 393
HOP-92 = test system: HOP-92
U-251 = test system: U-251
MDA-N = test system: MDA-N
IGROV-1 = test system: IGROV-1
LOX IMVI = test system: LOX IMVI
RPMI-8226 = test system: RPMI-8226
SK-MEL-5 = test system: SK-MEL-5
HCT-116 = test system: HCT-116
SK-MEL-2 = test system: SK-MEL-2
SF-539 = test system: SF-539
SN12C = test system: SN12C
CCRF-CEM = test system: CCRF-CEM
A549 = test system: A549
M14 = test system: M14
SK-MEL-28 = test system: SK-MEL-28
KM12 = test system: KM12
PC-3 = test system: PC-3
HCC 2998 = test system: HCC 2998
NCI-H460 = test system: NCI-H460

Measured: GI50

COc1cc(OC)nc(NC(=O)NS(=O)(=O)c2cccc3ncn(C)c(=O)c23)n1
inactive: SNB-19 > 100 µM | MOLT-4 > 100 µM | 786-0 > 100 µM | HL-60 > 100 µM | OVCAR-8 > 100 µM | SNB-75 41.3 µM | UACC-257 > 100 µM | Hs-578T 67.1 µM | HOP-62 > 100 µM | NCI-H522 > 100 µM | MCF7 > 100 µM | UACC-62 > 100 µM | SK-OV-3 > 100 µM | OVCAR-3 > 100 µM | HT-29 > 100 µM | SW-620 > 100 µM | MDA-MB-231 > 100 µM | NCI/ADR-RES > 100 µM | NCI-H226 > 100 µM | SF-295 > 100 µM | K562 > 100 µM | T47D > 100 µM | NCI-H23 > 100 µM | SR > 100 µM | MDA-MB-435 > 100 µM | DU-145 > 100 µM | SF-268 > 100 µM | COLO 205 > 100 µM | EKVX > 100 µM | Malme-3M > 100 µM | OVCAR-4 > 100 µM | OVCAR-5 > 100 µM | A498 > 100 µM | CAKI-1 > 100 µM | UO-31 > 100 µM | ACHN > 100 µM | TK-10 > 100 µM | RXF 393 > 100 µM | HOP-92 > 100 µM | U-251 > 100 µM | MDA-N > 100 µM | IGROV-1 > 100 µM | LOX IMVI > 100 µM | RPMI-8226 > 100 µM | SK-MEL-5 > 100 µM | HCT-116 > 100 µM | SK-MEL-2 > 100 µM | SF-539 > 100 µM | SN12C > 100 µM | CCRF-CEM > 100 µM | A549 > 100 µM | M14 > 100 µM
> 100 µM: HCT-15

Nc1nc(Nc2ccccc2)sc1C(=O)c1ccc(Cl)cc1
> 100 µM: HCT-15
inactive: SNB-19 3.24 µM | MOLT-4 8.99 µM | HL-60 > 100 µM | SNB-75 2.48 µM | HOP-62 2.88 µM | MCF7 4.39 µM | SK-OV-3 2.46 µM | SK-MEL-28 > 100 µM | HT-29 > 100 µM | SW-620 4.13 µM | MDA-MB-231 4.3 µM | SF-295 3.7 µM | K562 > 100 µM | T47D > 95.1 µM | NCI-H23 8.17 µM | SR 1.36 µM | MDA-MB-435 1.3 µM | SF-268 1.35 µM | COLO 205 > 100 µM | EKVX > 58.9 µM | OVCAR-5 > 100 µM | A498 2.4 µM | TK-10 5.12 µM | RXF 393 2.69 µM | HOP-92 3.39 µM | U-251 2.69 µM | IGROV-1 3.72 µM | SK-MEL-2 15.1 µM | SF-539 > 100 µM | CCRF-CEM > 100 µM | KM12 > 100 µM | M14 > 100 µM
active: OVCAR-4 0.748 µM | CAKI-1 0.71 µM

N#Cc1nc(-c2cnccn2)oc1N
inactive: SNB-19 > 100 µM | MOLT-4 > 100 µM | 786-0 > 100 µM | HL-60 > 100 µM | OVCAR-8 > 100 µM | SNB-75 > 100 µM | UACC-257 > 100 µM | Hs-578T > 100 µM | HOP-62 > 100 µM | PC-3 > 100 µM | MCF7 > 100 µM | UACC-62 > 100 µM | SK-OV-3 > 100 µM | SK-MEL-28 > 100 µM | HT-29 > 100 µM | SW-620 > 100 µM | MDA-MB-231 > 100 µM | K562 > 100 µM | SR > 100 µM | MDA-MB-435 > 100 µM | DU-145 > 100 µM | SF-268 > 100 µM | EKVX > 100 µM | OVCAR-5 > 100 µM | A498 > 100 µM | CAKI-1 > 100 µM | UO-31 62.5 µM | ACHN > 100 µM | TK-10 > 100 µM | RXF 393 > 100 µM | HOP-92 > 100 µM | U-251 > 100 µM | MDA-N > 100 µM | IGROV-1 > 100 µM | LOX IMVI > 100 µM | RPMI-8226 49.7 µM | SK-MEL-5 > 100 µM | HCT-116 > 100 µM | SK-MEL-2 > 100 µM | SN12C > 100 µM | CCRF-CEM > 100 µM | KM12 > 100 µM | A549 > 100 µM | M14 > 100 µM
> 100 µM: HCT-15

COc1ccc2nc(-c3ccc(OC(=O)N(C)C)cc3)cn2c1
inactive: SNB-19 > 100 µM | MOLT-4 82 µM | 786-0 91.6 µM | HL-60 > 100 µM | OVCAR-8 > 100 µM | SNB-75 > 100 µM | UACC-257 > 100 µM | Hs-578T > 100 µM | HOP-62 > 100 µM | PC-3 > 100 µM | NCI-H522 36 µM | MCF7 > 100 µM | UACC-62 > 100 µM | SK-OV-3 > 100 µM | SK-MEL-28 > 100 µM | OVCAR-3 > 100 µM | HT-29 27.8 µM | SW-620 > 100 µM | MDA-MB-231 > 100 µM | NCI/ADR-RES > 100 µM | NCI-H226 > 100 µM | SF-295 85.5 µM | K562 39 µM | T47D 71.4 µM | NCI-H23 > 100 µM | SR 38.9 µM | MDA-MB-435 > 100 µM | HCC 2998 > 100 µM | SF-268 > 100 µM | COLO 205 41.4 µM | NCI-H460 36 µM | EKVX > 100 µM | Malme-3M > 100 µM | OVCAR-4 > 100 µM | OVCAR-5 > 100 µM | A498 > 100 µM | CAKI-1 > 100 µM | ACHN > 100 µM | TK-10 > 100 µM | HOP-92 > 100 µM | U-251 > 100 µM | MDA-N > 100 µM | IGROV-1 > 100 µM | LOX IMVI 82.8 µM | SK-MEL-5 > 100 µM | HCT-116 > 100 µM | SK-MEL-2 > 100 µM | SN12C > 100 µM | CCRF-CEM 67.5 µM | KM12 86.1 µM | A549 > 100 µM | M14 75.7 µM

CC1=C/C(=N\NS(=O)(=O)c2ccc([N+](=O)[O-])cc2)CC(C)(C)C1
49.8 µM: HCT-15
inactive: SNB-19 69 µM | MOLT-4 > 100 µM | 786-0 > 100 µM | HL-60 > 100 µM | OVCAR-8 > 100 µM | UACC-257 80.5 µM | HOP-62 > 100 µM | PC-3 > 100 µM | NCI-H522 86.5 µM | MCF7 > 100 µM | UACC-62 50.2 µM | SK-OV-3 > 100 µM | SK-MEL-28 > 100 µM | OVCAR-3 > 100 µM | SW-620 > 100 µM | MDA-MB-231 > 100 µM | NCI/ADR-RES 93.5 µM | SF-295 > 100 µM | K562 62.1 µM | T47D > 100 µM | NCI-H23 92.9 µM | SR 79.6 µM | MDA-MB-435 > 100 µM | HCC 2998 > 100 µM | DU-145 > 100 µM | SF-268 83.6 µM | COLO 205 > 100 µM | NCI-H460 51.6 µM | EKVX > 100 µM | Malme-3M > 100 µM | OVCAR-5 > 100 µM | A498 > 100 µM | CAKI-1 > 100 µM | UO-31 80.7 µM | ACHN 54.6 µM | TK-10 > 100 µM | RXF 393 > 100 µM | HOP-92 10.4 µM | U-251 97.1 µM | MDA-N > 100 µM | IGROV-1 57.5 µM | LOX IMVI > 100 µM | RPMI-8226 > 100 µM | SK-MEL-5 66.1 µM | HCT-116 84.3 µM | SK-MEL-2 > 100 µM | SF-539 > 100 µM | SN12C 73.5 µM | CCRF-CEM > 100 µM | KM12 76.2 µM | A549 48.8 µM | M14 > 100 µM

O=C(Nc1ccc([N+](=O)[O-])cc1)c1ccc([N+](=O)[O-])cc1
inactive: SNB-75 48.9 µM and 70.6 µM | SF-295 85.9 µM and 50.2 µM
